According to US20070191333A1, “Antibacterial agents” (Warner Lambert Company LLC, priority 2003, published 2007):
Converted amounts (≈) assume the structure as drawn. Read-outs that look alike come from different tables or passages of the source.

How the values were obtained:
Type in all cases: cell-based
[1] = system: H. influenzae HI-3542; assay: Antibacterial microtitration MIC, H. influenzae HI-3542; details: strain HI-3542; for MIC: Haemophilus influenzae, HI3542, Gram Negative Bacteria, read-out: Minimum Inhibitory Concentrations H. influenzae HI-3542
Description: (§1) Test A—Antibacterial Assays The compounds of the present invention were tested against an assortment of Gram-negative and Gram-positive organisms using standard microtitration techniques (Cohen et. al., Antimicrob., 1985; 28:766; Heifetz, et. al., Antimicrob., 1974; 6:124).

[2] = system: E. coli 2026; assay: Antibacterial microtitration MIC, E. coli 2026; details: strain 2026; for MIC: read-out: Minimum Inhibitory Concentrations E. coli 2026
Description: as §1

[3] = system: M. catarrhalis BC-3531; assay: Antibacterial microtitration MIC, M. catarrhalis BC-3531; details: strain BC-3531; for MIC: Moraxella catarrhalis, BC3531, Gram Negative Bacteria, read-out: Minimum Inhibitory Concentrations M. catarrhalis BC-3531
Description: as §1

[4] = system: S. aureus UC-76; assay: Antibacterial microtitration MIC, S. aureus UC-76; details: strain UC-76; for MIC: Staphylococcus aureus, UC76, Gram Positive Bacteria, read-out: Minimum Inhibitory Concentrations S. aureus UC-76
Description: as §1

[5] = system: S. pneumo SV-1; assay: Antibacterial microtitration MIC, S. pneumo SV-1; details: Gram Positive Bacteria, strain SV-1; for MIC: read-out: Minimum Inhibitory Concentrations S. pneumo SV-1
Description: as §1

[6] = system: E. faecalis MGH-2; assay: Antibacterial microtitration MIC, E. faecalis MGH-2; details: strain MGH-2; for MIC: Enterococcus faecalis, MGH2, Gram Positive Bacteria, read-out: Minimum Inhibitory Concentrations E. faecalis MGH-2
Description: as §1

[7] = system: S pyogenes C203; assay: Antibacterial microtitration MIC, S pyogenes C203; details: Gram Positive Bacteria, strain C203; for MIC: read-out: Minimum Inhibitory Concentrations S pyogenes C203
Description: as §1

[8] = Escherichia coli, 2026, Gram Negative Bacteria

Structure (SMILES) | MIC [1] [µg/mL] | MIC [3] [µg/mL] | MIC [4] [µg/mL] | MIC [5] [µg/mL] | MIC [6] [µg/mL] | MIC [7] [µg/mL] | also measured
Cc1c(N2CC[C@H]([C@H](N)CC#N)C2)c(F)cc2c(=O)n(N)c(=O)n(C3CC3)c12 (racemic) [drawing 389] | 4 (≈ 10.4 µM) | 16 (≈ 41.4 µM) |  |  |  |  | MIC [2, 8]: 32 µg/mL (≈ 82.8 µM)
Cc1c(N2C[C@H](CNCCC#N)[C@@H](F)C2)c(F)cc2c(=O)n(N)c(=O)n(C3CC3)c12 (racemic) [drawing 397] | 8 (≈ 19.1 µM) | 16 (≈ 38.2 µM) |  |  |  |  | MIC ([2]; Escherichia coli, Gram Negative Bacteria): 32 µg/mL (≈ 76.5 µM)
Cc1c(N2CC[C@H]([C@H](N)CC#N)C2)c(F)cc2c(=O)n(N)c(=O)n(C3CC3)c12 (racemic) [drawing 406] |  |  | 1 (≈ 2.59 µM) | 0.5 (≈ 1.29 µM) | 4 (≈ 10.4 µM) | 0.5 (≈ 1.29 µM) | 
Cc1c(N2C[C@H](CNCCC#N)[C@@H](F)C2)c(F)cc2c(=O)n(N)c(=O)n(C3CC3)c12 (racemic) [drawing 414] |  |  | 2 (≈ 4.78 µM) | 1 (≈ 2.39 µM) | 4 (≈ 9.56 µM) | 1 (≈ 2.39 µM) | 
Cc1c(N2C[C@@H](CNCCC#N)[C@H](C)C2)c(F)cc2c(=O)n(N)c(=O)n(C3CC3)c12 (single isomer, unassigned) |  |  | 0.25 (≈ 0.603 µM) | 0.06 (≈ 0.145 µM) | 0.5 (≈ 1.21 µM) | 0.06 (≈ 0.145 µM) | 
Cc1c(N2C[C@H](CNCCC#N)[C@@H](C)C2)c(F)cc2c(=O)n(N)c(=O)n(C3CC3)c12 (single isomer, unassigned) |  |  | 0.25 (≈ 0.603 µM) | 0.125 (≈ 0.302 µM) | 0.5 (≈ 1.21 µM) | 0.125 (≈ 0.302 µM) | 
Cc1c(N2CC[C@@H]([C@@H](N)CC#N)C2)c(F)cc2c(=O)n(N)c(=O)n(C3CC3)c12 (single isomer, unassigned) [drawing 390] | 1 (≈ 2.59 µM) | 2 (≈ 5.18 µM) |  |  |  |  | MIC [2, 8]: 8 µg/mL (≈ 20.7 µM)
Cc1c(N2CC[C@@H]([C@@H](N)CC#N)C2)c(F)cc2c(=O)[nH]c(=O)n(C3CC3)c12 (single isomer, unassigned) [drawing 391] | 4 (≈ 10.8 µM) | 4 (≈ 10.8 µM) |  |  |  |  | Minimum Inhibitory Concentrations E. coli 2026 ([2]; Gram Negative Bacteria): 32 µg/mL
Cc1c(N2CC[C@@H]([C@@H](N)CC#N)C2)c(F)cc2c(=O)[nH]c(=O)n(C3CC3)c12 (single isomer, unassigned) [drawing 392] |  |  |  |  |  |  | Minimum Inhibitory Concentrations H. influenzae HI-3542 ([1]; Gram Negative Bacteria): 2 µg/mL; Minimum Inhibitory Concentrations E. coli 2026 ([2]; Gram Negative Bacteria): 8 µg/mL; Minimum Inhibitory Concentrations M. catarrhalis BC-3531 ([3]; Gram Negative Bacteria): 4 µg/mL
Cc1c(N2CC[C@@H]([C@H](C)NCCC#N)C2)c(F)cc2c(=O)n(N)c(=O)n(C3CC3)c12 (single isomer, unassigned) [drawing 394] | 0.5 (≈ 1.21 µM) | 1 (≈ 2.41 µM) |  |  |  |  | MIC [2, 8]: 4 µg/mL (≈ 9.65 µM)
COc1c(N2CC[C@@H]([C@H](C)NCCC#N)C2)c(F)cc2c(=O)n(N)c(=O)n(C3CC3)c12 (single isomer, unassigned) [drawing 400] | 16 (≈ 37.2 µM) | 16 (≈ 37.2 µM) |  |  |  |  | MIC [2, 8]: 64 µg/mL (≈ 149 µM)
COc1c(N2CC[C@@H]([C@H](C)NCCC#N)C2)c(F)cc2c(=O)[nH]c(=O)n(C3CC3)c12 (single isomer, unassigned) [drawing 401] | 64 (≈ 154 µM) | 64 (≈ 154 µM) |  |  |  |  | MIC [2, 8]: 64 µg/mL (≈ 154 µM)
Cc1c(N2CC[C@@H]([C@@H](N)CC#N)C2)c(F)cc2c(=O)n(N)c(=O)n(C3CC3)c12 (single isomer, unassigned) [drawing 407] |  |  | 0.125 (≈ 0.323 µM) | 0.06 (≈ 0.155 µM) | 0.25 (≈ 0.647 µM) | 0.03 (≈ 0.0776 µM) | 
Cc1c(N2CC[C@@H]([C@@H](N)CC#N)C2)c(F)cc2c(=O)[nH]c(=O)n(C3CC3)c12 (single isomer, unassigned) [drawing 408] |  |  | 0.25 (≈ 0.673 µM) | 0.125 (≈ 0.337 µM) | 0.5 (≈ 1.35 µM) | 0.125 (≈ 0.337 µM) | 
Cc1c(N2CC[C@@H]([C@@H](N)CC#N)C2)c(F)cc2c(=O)[nH]c(=O)n(C3CC3)c12 (single isomer, unassigned) [drawing 409] |  |  |  |  |  |  | Minimum Inhibitory Concentrations S. aureus UC-76 ([4]; Gram Positive Bacteria): 0.5 µg/mL; Minimum Inhibitory Concentrations S. pneumo SV-1 [5]: 0.125 µg/mL; Minimum Inhibitory Concentrations E. faecalis MGH-2 ([6]; Gram Positive Bacteria): 1 µg/mL; Minimum Inhibitory Concentrations S pyogenes C203 [7]: 0.25 µg/mL
Cc1c(N2CC[C@@H]([C@H](C)NCCC#N)C2)c(F)cc2c(=O)n(N)c(=O)n(C3CC3)c12 (single isomer, unassigned) [drawing 411] |  |  | 0.06 (≈ 0.145 µM) | 0.015 (≈ 0.0362 µM) | 0.125 (≈ 0.302 µM) | 0.03 (≈ 0.0724 µM) | 
COc1c(N2CC[C@@H]([C@H](C)NCCC#N)C2)c(F)cc2c(=O)n(N)c(=O)n(C3CC3)c12 (single isomer, unassigned) [drawing 417] |  |  | 0.25 (≈ 0.581 µM) | 0.125 (≈ 0.29 µM) | 1 (≈ 2.32 µM) | 0.125 (≈ 0.29 µM) | 
